Experimental data published in ChEMBL document CHEMBL1201862, “PubChem BioAssay data set” (2004).
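48-hour exposure; five concentrations; linearly interpolated endpoints. GI50 is the concentration that inhibits growth by half.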 The source made the active and inactive calls. Cut-off read from the data, not from the text of the source: active = GI50 up to about 1.1 µM and inactive = higher.

What was measured:
Experiment in all cases: NCI tumour cell line growth inhibition, 48 h
TK-10 = tested on: TK-10
NCI/ADR-RES = tested on: NCI/ADR-RES
SN12C = tested on: SN12C
DU-145 = tested on: DU-145
RXF 393 = tested on: RXF 393
Hs-578T = tested on: Hs-578T
K562 = tested on: K562
SNB-19 = tested on: SNB-19
T47D = tested on: T47D
PC-3 = tested on: PC-3
KM12 = tested on: KM12
786-0 = tested on: 786-0
SNB-75 = tested on: SNB-75
SR = tested on: SR

Measured: GI50

Cc1c(N2C(=O)CS(=O)(=O)C2c2cccc(Oc3ccccc3)c2)c(=O)n(-c2ccccc2)n1C (stereo not given)
inactive: TK-10 11.2 µM | NCI/ADR-RES 61.2 µM | SN12C 40.5 µM | DU-145 71.6 µM | RXF 393 21.6 µM | Hs-578T 30.9 µM | K562 24.3 µM | SNB-19 > 100 µM | T47D 29 µM | PC-3 43.3 µM | KM12 19.4 µM

NC(=S)N/N=C1\C(=O)Nc2c(Cl)cc(Cl)cc21
inactive: 786-0 22.9 µM | SNB-75 19 µM | TK-10 73.1 µM | NCI/ADR-RES 17.8 µM | SN12C 19.5 µM | RXF 393 16 µM | Hs-578T 24 µM | K562 29.6 µM | SR 16.3 µM | SNB-19 31.3 µM | PC-3 17.8 µM | KM12 18.9 µM

C1#Cc2ccccc2OCCOc2ccccc2C#Cc2ccccc2OCCOc2ccccc21
inactive: 786-0 10.3 µM | TK-10 28.8 µM | NCI/ADR-RES 29.4 µM | SN12C 30.7 µM | DU-145 > 100 µM | RXF 393 14.7 µM | Hs-578T 22.5 µM | K562 11.7 µM | SNB-19 25.9 µM | T47D 49.5 µM | PC-3 52 µM | KM12 68.2 µM

S=c1nc(Nc2ccc(Br)cc2)c2c3c(sc2[nH]1)CN(N1CCc2c(sc4[nH]c(=S)nc(Nc5ccc(Br)cc5)c24)C1)CC3
inactive: 786-0 8.13 µM | SNB-75 > 50 µM | TK-10 > 50 µM | NCI/ADR-RES > 50 µM | SN12C 28.4 µM | DU-145 33.7 µM | RXF 393 10.2 µM | Hs-578T > 50 µM | K562 11.1 µM | SR 27.5 µM | SNB-19 22.5 µM | T47D 8.79 µM | PC-3 38.8 µM | KM12 21.6 µM

COc1c(Cl)ccc(Cl)c1C(=O)NNC(=O)c1c(Cl)c(Cl)c(Cl)c(Cl)c1-c1nc2cc(C(=O)c3ccccc3)ccc2[nH]1
inactive: 786-0 72.4 µM | SNB-75 > 100 µM | TK-10 72.3 µM | NCI/ADR-RES > 100 µM | SN12C 70.8 µM | DU-145 > 100 µM | RXF 393 19.5 µM | Hs-578T 54.1 µM | K562 26.7 µM | SR 37.2 µM | SNB-19 > 100 µM | T47D 15.5 µM | PC-3 37.8 µM | KM12 80.5 µM

O=c1cnn(CCOCP(=O)(O)O)c(=O)[nH]1
inactive: SNB-75 > 100 µM | TK-10 > 100 µM | NCI/ADR-RES > 100 µM | SN12C > 100 µM | DU-145 > 100 µM | RXF 393 > 100 µM | Hs-578T > 100 µM | K562 > 100 µM | SNB-19 > 100 µM | T47D > 100 µM | PC-3 > 100 µM | KM12 > 100 µM

CCn1cc(C(c2ccc(Cl)cc2)n2ccnc2)c2cc(Br)ccc21 (stereo not given)
inactive: SNB-75 13.6 µM | TK-10 16.1 µM | NCI/ADR-RES 12.6 µM | SN12C 22.8 µM | DU-145 16.6 µM | RXF 393 14.8 µM | Hs-578T 18.7 µM | K562 4.85 µM | SR 4.35 µM | SNB-19 14.3 µM | PC-3 9.55 µM | KM12 11.4 µM

CCC(=O)NC(OCC1(CC)COC1)(C(F)(F)F)C(F)(F)F
inactive: SNB-75 > 100 µM | TK-10 > 100 µM | SN12C > 100 µM | DU-145 > 100 µM | RXF 393 92.3 µM | Hs-578T > 100 µM | K562 > 100 µM | SR > 100 µM | SNB-19 > 100 µM | T47D > 100 µM | KM12 > 100 µM

CO/N=C1/c2sccc2[C@H](NC(=O)CNC(=O)OC(C)(C)C)[C@@H]1O
inactive: SNB-75 > 100 µM | TK-10 > 100 µM | NCI/ADR-RES > 100 µM | SN12C > 100 µM | DU-145 > 100 µM | RXF 393 > 100 µM | Hs-578T > 100 µM | K562 > 100 µM | SR > 100 µM | SNB-19 > 100 µM | T47D > 100 µM | PC-3 > 100 µM

CCCO[C@@H]1[C@@H](OC(C)=O)[C@@H](OC(C)=O)C(C)(C)/C=C/[C@H](C)C(=O)[C@@]2(OC(C)=O)C[C@@](C)(OC(C)=O)[C@H](OC(C)=O)[C@@H]2[C@H]2OC(=O)CC[C@@]12OC(=O)c1ccccc1
inactive: SNB-75 > 25 µM | TK-10 > 25 µM | NCI/ADR-RES > 25 µM | SN12C > 25 µM | DU-145 > 25 µM | RXF 393 > 25 µM | Hs-578T 12.1 µM | K562 4.63 µM | SNB-19 > 25 µM | T47D > 25 µM | PC-3 20.4 µM | KM12 > 25 µM

COC(=O)c1cc(C)ccc1CC(Cc1cccc(C)c1)C(=O)OC (stereo not given)
inactive: 786-0 > 100 µM | SNB-75 39.5 µM | TK-10 > 100 µM | NCI/ADR-RES 95.9 µM | SN12C > 100 µM | DU-145 92.9 µM | RXF 393 29.2 µM | Hs-578T > 100 µM | K562 45.7 µM | SR 38.4 µM | SNB-19 > 100 µM | T47D > 100 µM | PC-3 > 100 µM | KM12 > 100 µM

CN(C)c1ccc(/C=N/c2ccc(Oc3ccc(Cl)cc3)c(Cl)c2)cc1
inactive: SNB-75 13.1 µM | TK-10 32.4 µM | NCI/ADR-RES 16.2 µM | SN12C 21.6 µM | DU-145 27.5 µM | Hs-578T 15.4 µM | SR 10.9 µM | SNB-19 16.4 µM | T47D 16.8 µM | PC-3 15.2 µM | KM12 17.1 µM

CCN(CC)CCNCc1cc(Cl)cc2c1OCOC2
inactive: SNB-75 > 10 µM | TK-10 > 10 µM | NCI/ADR-RES > 10 µM | SN12C > 10 µM | DU-145 > 10 µM | RXF 393 > 10 µM | Hs-578T > 10 µM | K562 > 10 µM | SR > 10 µM | SNB-19 > 10 µM | T47D > 10 µM | PC-3 > 10 µM | KM12 > 10 µM

Cc1cc(C)c2c(n1)S(=O)(=O)N(CCCN1CCN(c3cccc(C(F)(F)F)c3)CC1)C(C(=O)c1ccccc1)=C2O
inactive: 786-0 4.48 µM | SNB-75 3.48 µM | TK-10 10.5 µM | NCI/ADR-RES 3.21 µM | SN12C 4.55 µM | DU-145 13.4 µM | RXF 393 5.73 µM | Hs-578T 17.6 µM | K562 3.69 µM | SR 2.93 µM | SNB-19 5.53 µM | T47D 13.1 µM | PC-3 9.82 µM | KM12 5.02 µM

C=Cc1cc2c(cc1O)CC[C@@H]1[C@@H]2CC[C@]2(C)[C@@H](O)CC[C@@H]12
inactive: 786-0 4.13 µM | SNB-75 5.38 µM | TK-10 12.2 µM | NCI/ADR-RES 1.77 µM | RXF 393 2.56 µM | K562 3.03 µM | SR 1.97 µM | SNB-19 4.23 µM | T47D 8.79 µM | PC-3 11.6 µM | KM12 5.11 µM
